Test results taken from patent US20150273010A1 (priority 2012, published 2015).

Assays:
Format in all cases: cell-based
HIV-1 PR [1] = target: T1, HIV-1 PR (Human immunodeficiency virus type 1 group M subtype B, UniProt P04585); conditions: 293T cells, PR/RT cleavage site, added as PI
HIV-1 PR [2] = target: T1, HIV-1 PR
From the text: For that purpose, the well-characterized PR/RT and RT/IN HIV-1 boundaries were introduced between the Gal4 domains.

HIV-1 PR [3] = target: T1, HIV-1 PR; conditions: 10 μM; Gal4/PR SupT1 clones, 1 μg/mL Dox
SupT1 cells = assay: Toxicity of PI to cells during the Gal4/library/PR screen; conditions: 100.M Indinavir, with PR as part of a fusion, time frame required for the screen
From the text: The screen starts with the addition of Dox. In alternative embodiments, cells can be non-fluorescent and not contain a Gal4/library fusion protein at all, or they can express a fusion protein cleaved by HIV-1 PR or cellular proteases. Cells expressing a non-cleaved fusion can be fluorescent (FIG. 10A panel a) as they will be able to activate the E2-Crimson reporter. This population is not of interest in this screen. In alternative embodiments, the non-fluorescent population is sorted and expanded (FIG. 10A panel b). In alternative embodiments, cells are then treated again with Dox, but this time in the presence of PI (100.M Indinavir). We have shown that Indinavir at this concentration, and PR as part of a fusion, are not toxic at least for the time frame required for the screen. Only the subpopulation of cells that express a substrate specific for PR should turn fluorescent and thus be E2-Crimson positive (FIG. 10A panel c). In alternative embodiments, this population is sorted and amplified (FIG. 10A panel d) and used to obtain individual clonal populations by growing individual cells in a 96-well format.

HIV-1 PR [4] = target: T1, HIV-1 PR; conditions: HEK 293T co-transfected with p55 and PR, 48 hours post-transfection, PI present
Method: Transfected cells were analyzed 48 hours post-transfection with anti-p24 antibody. […] Quantification of the Western blots by IMAGEJ™ (ImageJ™) software. Band intensities are plotted as a ratio of p24 to p55.
We performed a biochemical assay to assess PR activity based on its ability to cleave one of its natural substrates—the p55 Gag poly-protein. For this purpose, p96ZM651gag-opt (from the NIH AIDS reagent program) with humanized codons for optimal expression, was used as substrate. Cells were co-transfected with p55 and PR in the presence or absence of Ritonavir as PI. Cells were then analyzed by western blot 48 hours post-transfection with antibodies against HIV p24, capsid (NIH AIDS reagent program).

[5] = test system: self-inactivating pseudo-typed HIV-1 (sinHIV-GFP); assay: sinHIV-GFP infection screen of SupT1 cells expressing nuclear random peptide library (FACS); conditions: clones isolated after 12 rounds of infection/selection; compared to the mCherry control
Method: A retroviral random peptide library localized to the nucleus, 3XF(GGS)3 NLS RPL, was used to search for novel inhibitors of HIV-1. In order to screen a population of SupT1 expressing this library, a self-inactivating pseudo-typed HIV-1 carrying a pCMV-GFP expression cassette was utilized. The 3XF(GGS)3 NLS RPL SupT1 cells and cells expressing pBMN.i.mCherry were then screened by infection with sinHIV-GFP. 72 hours post-infection, the cells were sorted by Fluorescence Activated Cell Sorting (FACS) based on the expression of GFP, retaining and expanding GFP-negative cells in culture. […] Following 12 rounds of infection, selection of non-fluorescent cells and amplification of the 3XF(GGS)3 NLS RPL expressing SupT1 cells, eight clones were isolated, and expanded in culture.

Compound: CC(C)CN(C[C@@H](O)[C@H](Cc1ccccc1)NC(=O)O[C@H]1CO[C@H]2OCC[C@H]21)S(=O)(=O)c1ccc(N)cc1 [Darunavir, darunavir]
- reversal of PR-dependent reduction in green fluorescence (HIV-1 PR [1]): the trend was reversed
- inhibition of PR-dependent decrease in E2-C fluorescence (HIV-1 PR [2]): strongly inhibited

Compound: CC(C)(C)NC(=O)[C@@H]1CN(Cc2cccnc2)CCN1C[C@@H](O)C[C@@H](Cc1ccccc1)C(=O)N[C@H]1c2ccccc2C[C@H]1O [Indinavir]
- PR inhibition read as GFP induction (HIV-1 PR [3]): inhibited PR, allowing robust GFP induction
- toxicity (SupT1 cells): not toxic

Compound: CC(C)c1nc(CN(C)C(=O)N[C@H](C(=O)N[C@@H](Cc2ccccc2)C[C@H](O)[C@H](Cc2ccccc2)NC(=O)OCc2cncs2)C(C)C)cs1 [Ritonavir]
- p55 Gag poly-protein processing by PR (HIV-1 PR [4]): poly-protein processing is hindered

Compound: Thr Arg Arg Val Ala His Asn Ser Glu (TRRVAHNSE) [Clone 2]
- decrease in sinHIV-GFP infection rate [5]: largest decrease

Compound: Trp Arg Gly Ala Ala Met Val Arg Gly (WRGAAMVRG) [Clone 6]
- decrease in sinHIV-GFP infection rate [5]: largest decrease
